What was measured:
Cytochrome P450 2C9 = Cytochrome P450 2C9 (Homo sapiens, UniProt P11712); experiment: Inhibition of human liver CYP2C9; type: ADME
Salmonella typhimurium [1] = experiment: Mutagenicity in Salmonella typhimurium TA100 assessed as increase in number of colonies by Ames test relative to control; type: toxicity, organism-based; conditions: salmonella enterica subsp. enterica serovar typhimurium
Hepatitis C virus [2] = experiment: Antiviral activity against HCV genotype 1b infected in human Huh7 cells after 3 days by cell-based replicon assay in presence of 40% normal human serum; type: functional, Hepacivirus hominis; conditions: Huh-7, 72 h
Salmonella typhimurium [3] = experiment: Mutagenicity in Salmonella typhimurium TA1535 assessed as increase in number of colonies by Ames test relative to control; type: toxicity, organism-based; conditions: salmonella enterica subsp. enterica serovar typhimurium
Rattus norvegicus [4] = species: Rattus norvegicus; experiment: Toxicity in male rat assessed as adverse effect on reproductive organ; type: organism-based; conditions: in vivo
[5] = Therapeutic index, ratio of CC50 for human Huh7 cells to EC50 for HCV genotype 1b infected in human Huh7 cells; type: cell-based, Huh-7; conditions: read-out: Ratio CC50/EC50
Salmonella typhimurium [6] = experiment: Mutagenicity in Salmonella typhimurium TA98 assessed as increase in number of colonies by Ames test relative to control; type: toxicity, organism-based; conditions: salmonella enterica subsp. enterica serovar typhimurium
[7] = (§1) Toxicity in po dosed male SHK mouse; type: organism-based; conditions: male, SHK, in vivo
Mus musculus [8] = experiment: as §1; type: organism-based; conditions: in vivo
[9] = Half life in beagle dog at 5 mg/kg, iv as 30 mins infusion; type: ADME, organism-based, Canis lupus familiaris; parameters: dose 5 mg/kg, route intravenous; conditions: in vivo
Cytochrome P450 2C19 = Cytochrome P450 2C19 (Homo sapiens, UniProt P33261); experiment: Inhibition of human liver CYP2C19; type: ADME
Chain of Cytochrome P450 2C19 (P33261 whole entry, the tested form may be a part): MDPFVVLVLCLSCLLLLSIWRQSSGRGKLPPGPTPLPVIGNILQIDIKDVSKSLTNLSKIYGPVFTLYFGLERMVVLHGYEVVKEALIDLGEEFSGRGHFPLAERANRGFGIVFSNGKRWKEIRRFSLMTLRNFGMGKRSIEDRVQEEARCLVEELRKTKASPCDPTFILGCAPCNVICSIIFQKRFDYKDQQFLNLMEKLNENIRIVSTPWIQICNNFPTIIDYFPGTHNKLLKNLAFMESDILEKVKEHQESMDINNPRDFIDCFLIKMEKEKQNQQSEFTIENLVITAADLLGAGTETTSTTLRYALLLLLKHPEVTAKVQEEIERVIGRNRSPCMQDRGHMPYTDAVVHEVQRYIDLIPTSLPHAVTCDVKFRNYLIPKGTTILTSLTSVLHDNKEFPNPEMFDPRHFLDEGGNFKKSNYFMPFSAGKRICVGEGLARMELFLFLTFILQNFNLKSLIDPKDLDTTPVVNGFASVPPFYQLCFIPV

[10] = Half life in Sprague-Dawley rat at 2.8 mg/kg, iv as 30 mins infusion; type: ADME, organism-based; parameters: dose 2.8 mg/kg, route intravenous; conditions: in vivo
[11] = (§2) Toxicity in po dosed female SHK mouse; type: organism-based; conditions: female, SHK, in vivo
Mus musculus [12] = experiment: as §2; type: organism-based; conditions: in vivo
Rattus norvegicus [13] = species: Rattus norvegicus; experiment: Toxicity in rat by 12-weeks study; type: organism-based; conditions: in vivo, 2016 h
Hepatitis C virus [14] = experiment: Antiviral activity against HCV genotype 1a; type: functional, Hepacivirus hominis; conditions: subtype 1a
[15] = Cytotoxicity against Dengue virus infected african green monkey Vero 76 cells after 3 days; type: cell-based; conditions: chlorocebus sabaeus, Vero 76 cells infected with Dengue virus
Salmonella typhimurium [16] = experiment: Mutagenicity in Salmonella typhimurium TA1537 assessed as increase in number of colonies by Ames test relative to control; type: toxicity, organism-based; conditions: salmonella enterica subsp. enterica serovar typhimurium
[17] = Half life in beagle dog at 10 mg/kg, po; type: ADME, organism-based, Canis lupus familiaris; parameters: dose 10 mg/kg, route oral; conditions: in vivo
[18] = Cytotoxicity against Yellow fever virus infected african green monkey Vero 76 cells after 3 days; type: cell-based; conditions: chlorocebus sabaeus, Vero 76 cells infected with Yellow fever virus
[19] = Solubility of the compound in water at pH 7.4; type: physicochemical
Hepatitis C virus [20] = experiment: Antiviral activity against HCV genotype 2a; type: functional, Hepacivirus hominis
[21] = Solubility of the compound in water at pH 2; type: physicochemical
Cytochrome P450 2D6 = Cytochrome P450 2D6 (Homo sapiens, UniProt P10635); experiment: Inhibition of human liver CYP2D6; type: ADME
Chain of Cytochrome P450 2D6 (P10635 whole entry): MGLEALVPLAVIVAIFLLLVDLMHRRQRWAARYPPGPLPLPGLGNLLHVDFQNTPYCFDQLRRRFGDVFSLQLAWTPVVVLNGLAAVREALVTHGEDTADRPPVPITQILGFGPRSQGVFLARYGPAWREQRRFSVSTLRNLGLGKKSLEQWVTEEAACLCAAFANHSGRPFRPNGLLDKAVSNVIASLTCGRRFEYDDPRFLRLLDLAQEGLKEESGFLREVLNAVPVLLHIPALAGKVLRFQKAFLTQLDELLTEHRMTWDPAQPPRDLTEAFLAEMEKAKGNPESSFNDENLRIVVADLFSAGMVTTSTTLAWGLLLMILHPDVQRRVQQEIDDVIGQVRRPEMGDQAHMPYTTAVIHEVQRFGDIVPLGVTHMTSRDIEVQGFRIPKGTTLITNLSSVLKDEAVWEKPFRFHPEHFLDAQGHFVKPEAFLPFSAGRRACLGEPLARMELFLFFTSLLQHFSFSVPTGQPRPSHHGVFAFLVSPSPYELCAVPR

[22] = Solubility of the compound in alcohol; type: physicochemical
[23] = Solubility of the compound in water at pH 4; type: physicochemical
[24] = Half life in Sprague-Dawley rat at 11.2 mg/kg, po; type: ADME, organism-based; parameters: dose 11.2 mg/kg, route oral; conditions: in vivo
[25] = Oral bioavailability in Sprague-Dawley rat at 11.2 mg/kg; type: ADME, organism-based; conditions: in vivo
[26] = Cytotoxicity against West Nile virus NY99 infected african green monkey Vero 76 cells after 3 days; type: cell-based; conditions: chlorocebus sabaeus, Vero 76 cells infected with West Nile virus NY99
[27] = Lipophilicity, log P of the compound; type: physicochemical; conditions: octanol/water
West Nile virus = experiment: Antiviral activity against West Nile virus NY99 infected in african green monkey Vero-76 cells after 3 days; type: functional, organism-based; conditions: NY99, Vero 76, 72 h
[28] = Metabolic stability in dog liver microsomes assessed as residual compound at 1 uM after 60 mins; type: ADME, Canis lupus familiaris; conditions: read-out: Stability
[29] = Solubility of the compound in dimethyl sulfoxide; type: physicochemical
Rattus norvegicus [30] = species: Rattus norvegicus; experiment: Toxicity in female rat assessed as adverse effect on reproductive organ; type: organism-based; conditions: in vivo
Hepatitis C virus [31] = experiment: Antiviral activity against HCV genotype 1b infected in human Huh7 cells after 3 days by cell-based replicon assay in presence of 10% fetal bovine serum; type: functional, Hepacivirus hominis; conditions: Huh-7, 72 h
[32] = Oral bioavailability in beagle dog at 10 mg/kg; type: ADME, organism-based, Canis lupus familiaris; conditions: in vivo
[33] = (§3) Toxicity in ip dosed male Wistar rat; type: organism-based; conditions: male, Wistar, in vivo
Rattus norvegicus [34] = experiment: as §3; type: organism-based; conditions: in vivo
Canis familiaris = species: Canis familiaris; experiment: Toxicity in dog by 6-weeks study; type: organism-based, Canis lupus familiaris; conditions: in vivo, 1008 h
Cytochrome P450 1A2 = molecular target: T1, Cytochrome P450 1A2 (Homo sapiens, UniProt P05177); experiment: Inhibition of human liver CYP1A2; type: ADME
T1 sequence (P05177 whole entry): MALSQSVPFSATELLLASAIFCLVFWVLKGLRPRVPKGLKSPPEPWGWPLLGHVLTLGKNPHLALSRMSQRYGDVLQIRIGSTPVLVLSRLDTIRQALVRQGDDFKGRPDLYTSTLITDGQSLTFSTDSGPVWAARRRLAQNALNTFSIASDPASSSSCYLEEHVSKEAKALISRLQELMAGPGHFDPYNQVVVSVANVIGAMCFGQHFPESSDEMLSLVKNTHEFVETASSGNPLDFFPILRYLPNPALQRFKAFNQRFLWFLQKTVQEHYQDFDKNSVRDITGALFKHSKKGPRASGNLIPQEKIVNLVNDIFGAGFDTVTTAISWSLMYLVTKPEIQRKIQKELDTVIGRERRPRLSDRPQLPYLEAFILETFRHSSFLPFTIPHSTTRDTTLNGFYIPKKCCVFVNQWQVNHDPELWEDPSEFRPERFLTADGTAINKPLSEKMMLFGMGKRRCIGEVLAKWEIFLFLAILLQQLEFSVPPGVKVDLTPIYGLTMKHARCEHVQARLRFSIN

[35] = molecular target: Voltage-gated inwardly rectifying potassium channel KCNH2 (Homo sapiens, UniProt Q12809); experiment: Binding affinity to human ERG at 3 to 30 uM
Chain of Voltage-gated inwardly rectifying potassium channel KCNH2 (Q12809 whole entry): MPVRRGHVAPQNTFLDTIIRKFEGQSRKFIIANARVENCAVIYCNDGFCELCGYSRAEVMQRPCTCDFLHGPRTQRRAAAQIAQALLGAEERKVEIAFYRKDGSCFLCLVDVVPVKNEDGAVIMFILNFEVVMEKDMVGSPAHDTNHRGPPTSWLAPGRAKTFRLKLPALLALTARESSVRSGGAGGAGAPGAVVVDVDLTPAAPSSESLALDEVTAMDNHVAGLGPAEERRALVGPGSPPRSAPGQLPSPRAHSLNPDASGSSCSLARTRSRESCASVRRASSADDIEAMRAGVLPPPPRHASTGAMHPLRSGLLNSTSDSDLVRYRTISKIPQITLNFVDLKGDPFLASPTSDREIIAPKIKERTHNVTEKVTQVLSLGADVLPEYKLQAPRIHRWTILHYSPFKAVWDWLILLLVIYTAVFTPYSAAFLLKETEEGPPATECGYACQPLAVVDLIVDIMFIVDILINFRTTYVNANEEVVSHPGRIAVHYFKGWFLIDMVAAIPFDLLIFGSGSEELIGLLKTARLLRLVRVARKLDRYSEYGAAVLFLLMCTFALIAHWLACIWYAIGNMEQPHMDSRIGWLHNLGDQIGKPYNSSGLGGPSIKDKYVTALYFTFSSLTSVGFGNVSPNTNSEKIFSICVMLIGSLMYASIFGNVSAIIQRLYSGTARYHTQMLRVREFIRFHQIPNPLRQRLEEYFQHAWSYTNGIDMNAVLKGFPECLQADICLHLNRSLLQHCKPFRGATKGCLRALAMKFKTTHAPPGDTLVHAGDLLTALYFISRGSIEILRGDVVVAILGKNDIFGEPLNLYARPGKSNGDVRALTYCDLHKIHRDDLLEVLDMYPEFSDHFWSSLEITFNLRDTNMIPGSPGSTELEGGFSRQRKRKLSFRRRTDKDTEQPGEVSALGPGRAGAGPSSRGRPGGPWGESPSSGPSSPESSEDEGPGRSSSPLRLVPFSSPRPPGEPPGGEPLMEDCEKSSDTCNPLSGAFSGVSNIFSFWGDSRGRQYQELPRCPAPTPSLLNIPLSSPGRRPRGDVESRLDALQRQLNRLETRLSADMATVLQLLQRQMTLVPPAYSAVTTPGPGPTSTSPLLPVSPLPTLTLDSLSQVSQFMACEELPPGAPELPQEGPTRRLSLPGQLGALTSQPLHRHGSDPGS

[36] = Metabolic stability in human liver microsomes assessed as residual compound at 1 uM after 60 mins; type: ADME; conditions: read-out: Stability
[37] = (§4) Toxicity in ip dosed Wistar rat; type: organism-based; conditions: Wistar, in vivo
Rattus norvegicus [38] = experiment: as §4; type: organism-based; conditions: in vivo
Yellow fever virus = experiment: Antiviral activity against Yellow fever virus infected in african green monkey Vero-76 cells after 3 days; type: functional, organism-based; conditions: Vero 76, 72 h
[39] = Cytotoxicity against human HuH7 cells; type: cell-based, Huh-7
Dengue virus = experiment: Antiviral activity against Dengue virus infected in african green monkey Vero-76 cells after 3 days; type: functional, organism-based; conditions: Vero 76, 72 h
[40] = (§5) Toxicity in ip dosed female Wistar rat; type: organism-based; conditions: female, Wistar, in vivo
Rattus norvegicus [41] = experiment: as §5; type: organism-based; conditions: in vivo
Hepatitis C virus [42] = experiment: Antiviral activity against HCV genotype 4a; type: functional, Hepacivirus hominis
[43] = Lipophilicity, log D of the compound at pH 7.4; type: physicochemical; conditions: buffer
[44] = Toxicity in ip dosed SHK mouse; type: organism-based; conditions: in vivo
[45] = Metabolic stability in rat liver microsomes assessed as residual compound at 1 uM after 60 mins; type: ADME; conditions: read-out: Stability
Cytochrome P450 3A4 = Cytochrome P450 3A4 (Homo sapiens, UniProt P08684); experiment: Inhibition of human liver CYP3A4; type: ADME
Chain of Cytochrome P450 3A4 (P08684 whole entry): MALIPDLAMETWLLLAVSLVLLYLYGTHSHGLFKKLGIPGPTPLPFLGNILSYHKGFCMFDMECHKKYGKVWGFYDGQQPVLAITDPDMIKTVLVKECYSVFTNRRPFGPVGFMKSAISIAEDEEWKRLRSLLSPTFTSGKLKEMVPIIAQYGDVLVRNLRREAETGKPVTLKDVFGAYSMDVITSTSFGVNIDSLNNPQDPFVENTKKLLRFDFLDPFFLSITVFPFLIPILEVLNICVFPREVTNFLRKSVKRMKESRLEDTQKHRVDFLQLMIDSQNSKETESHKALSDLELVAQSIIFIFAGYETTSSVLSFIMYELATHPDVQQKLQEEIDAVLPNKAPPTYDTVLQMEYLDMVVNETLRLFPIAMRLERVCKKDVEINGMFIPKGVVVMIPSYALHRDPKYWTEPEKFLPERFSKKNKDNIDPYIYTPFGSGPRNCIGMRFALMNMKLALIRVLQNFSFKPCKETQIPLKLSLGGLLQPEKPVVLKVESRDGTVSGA

Chain of Cytochrome P450 2C9 (P11712 whole entry): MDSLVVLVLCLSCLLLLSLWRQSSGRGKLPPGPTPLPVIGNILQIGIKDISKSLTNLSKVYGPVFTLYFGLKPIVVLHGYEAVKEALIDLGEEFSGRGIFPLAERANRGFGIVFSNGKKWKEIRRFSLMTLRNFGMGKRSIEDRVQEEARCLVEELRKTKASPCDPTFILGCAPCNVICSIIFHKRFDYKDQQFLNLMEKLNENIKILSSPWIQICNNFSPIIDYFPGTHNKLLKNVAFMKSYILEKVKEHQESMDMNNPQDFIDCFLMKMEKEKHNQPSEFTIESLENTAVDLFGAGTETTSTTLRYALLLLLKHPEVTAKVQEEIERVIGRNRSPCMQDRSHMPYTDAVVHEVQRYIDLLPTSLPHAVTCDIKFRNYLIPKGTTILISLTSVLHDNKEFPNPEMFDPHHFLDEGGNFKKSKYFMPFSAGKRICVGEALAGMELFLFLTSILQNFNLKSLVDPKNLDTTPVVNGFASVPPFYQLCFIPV

Question: What does the source list for `COC(=O)N[C@H](C(=O)N1CCCC1c1ncc(C#CC#Cc2ccc(-c3cnc(C4CCCN4C(=O)[C@@H](NC(=O)OC)C(C)C)[nH]3)cc2)[nH]1)C(C)C.Cl` (single isomer, unassigned; 13a)?
Answer: IC50 (Cytochrome P450 2C9): > 10 µM; Activity (Salmonella typhimurium [1]): Non-toxic; EC50 (Hepatitis C virus [2]): 21 pM; Activity (Salmonella typhimurium [3]): Non-toxic; Activity (Rattus norvegicus [4]): Non-toxic; LD84 (Rattus norvegicus [4]): 593.2 mg/kg; selectivity ratio [5]: > 5000; Activity (Salmonella typhimurium [6]): Non-toxic; LD50 [7]: 3440 mg/kg; LD10 (Mus musculus [8]): 2320.3 mg/kg; LD16 (Mus musculus [8]): 2565.4 mg/kg; LD84 (Mus musculus [8]): 4305.3 mg/kg; half-life [9]: 4.9 h; IC50 (Cytochrome P450 2C19): > 10 µM; half-life [10]: 3.4 h; LD50 [11]: 3010 mg/kg; LD10 (Mus musculus [12]): 1160.1 mg/kg; LD16 (Mus musculus [12]): 1565.7 mg/kg; LD84 (Mus musculus [12]): 4445.3 mg/kg; Activity (Rattus norvegicus [13]): Non-toxic; LD84 (Rattus norvegicus [13]): 651.3 mg/kg; EC50 (Hepatitis C virus [14]): 59 pM; CC50 at 72 h [15]: 28.4 µM; Activity (Salmonella typhimurium [16]): Non-toxic; half-life [17]: 4.5 h; CC50 at 72 h [18]: 23.5 µM; solubility [19]: 433 µM; EC50 (Hepatitis C virus [20]): 51 pM; solubility [21]: 208 µM; IC50 (Cytochrome P450 2D6): > 10 µM; solubility [22]: ≥ 10 µM; solubility [23]: 2200 µM; half-life [24]: 3 h; bioavailability [25]: 65%; CC50 at 72 h [26]: 26.3 µM; logP [27]: 4.99; EC50 (West Nile virus): > 26.3 µM; remaining at 1 h, 1 µM [28]: 84.7%; solubility [29]: ≥ 10 µM; Activity (Rattus norvegicus [30]): Non-toxic; EC50 (Hepatitis C virus [31]): 3.4 pM; bioavailability [32]: 58%; LD50 [33]: 349 mg/kg; LD10 (Rattus norvegicus [34]): 228.6 mg/kg; Activity (Canis familiaris): Non-toxic; LD84 (Canis familiaris): 485.6 mg/kg; IC50 (Cytochrome P450 1A2): > 10 µM; Activity [35]: < 10%; remaining at 1 h, 1 µM [36]: 81.5%; LD50 [37]: 395 mg/kg; LD10 (Rattus norvegicus [38]): 234.2 mg/kg; EC50 (Yellow fever virus): > 23.5 µM; CC50 [39]: 17.3 µM; EC50 (Dengue virus): > 28.4 µM; LD50 [40]: 412 mg/kg; LD10 (Rattus norvegicus [41]): 228.4 mg/kg; EC50 (Hepatitis C virus [42]): 6.5 pM; logD [43]: 4.46; LD50 [44]: > 1600 mg/kg; remaining at 1 h, 1 µM [45]: 70.8%; IC50 (Cytochrome P450 3A4): > 10 µM
